Data as given in patent EP0872239A2 (ELI LILLY AND COMPANY, priority 1997, dated 1998).

Columns and labels:
[1] = system: muscarinic cholinergic receptor; assay: pharmacological studies, muscarinic cholinergic receptor activity; settings: stated in words only
5-HT1C receptor = biological target: T1, 5-HT1C receptor (Homo sapiens, UniProt P28335); assay: pharmacological studies, 5-HT1C receptor activity; settings: stated in words only
T1 sequence (P28335 33-458): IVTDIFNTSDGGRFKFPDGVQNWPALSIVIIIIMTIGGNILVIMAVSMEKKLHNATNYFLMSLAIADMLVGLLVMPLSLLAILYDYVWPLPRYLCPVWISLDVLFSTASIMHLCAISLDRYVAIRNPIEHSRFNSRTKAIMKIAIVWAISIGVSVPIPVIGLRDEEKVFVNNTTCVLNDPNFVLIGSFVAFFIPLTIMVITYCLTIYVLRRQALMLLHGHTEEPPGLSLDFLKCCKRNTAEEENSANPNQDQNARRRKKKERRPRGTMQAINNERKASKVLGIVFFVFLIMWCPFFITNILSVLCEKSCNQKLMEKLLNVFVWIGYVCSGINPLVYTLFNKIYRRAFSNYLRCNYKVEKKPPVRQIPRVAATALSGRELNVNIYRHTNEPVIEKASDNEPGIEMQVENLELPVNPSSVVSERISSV

cerebral focal stroke = assay: experimental stroke / cerebral ischemia models (Assays 2 and 3); format: in vivo, rats; settings: general statement on "such experiments"; no data given
Description: The methodology for testing the compound's effect in ameliorating ischemic cell damage after transient middle cerebral artery occlusion (Zhang, et al., Stroke 26, 1438-43, 1995) is given as one example.
Male rats weighing approximately 300 grams are anesthetized with 3.5% halothane and maintained with 1.0% halothane in 70% N2O and 30% O2 with the use of a face mask. Rectal remperature is maintained at 37°C throughout the surgical procedure. The right femoral artery and vein are cannulated for measuring blood gases before inducing ischemia, monitoring blood pressure during the surgery and administering compound.
Approximately 18 mm of 4-0 surgical nylon suture with a rounded tip is advanced from the external carotid artery into the lumen of the internal carotid artery until it blocks the origin of the middle cerebral artery (MCA). […] Infarct volume is measured blindly with the use of a Global Lab Image analysis program (Data Translation). The infarct area and the ipsilateral and contralateral hemispheric area are calculated in square millimeters by tracing the right and left hemispheres and the ischemic lesion on the computer screen. The volumes in cubic millimeters are determined by multiplying the area by the section interval thickness. Infarct volume is analyzed as a percentage of the whole hemisphere. […]

Compound: Cc1cc2c(s1)Nc1ccccc1N=C2N1CCN(C)CC1 [olanzapine, 2-methyl-4-(4-methyl-1-piperazinyl)-10H-thieno [2,3-b] [1,5] benzodiazepine]
- muscarinic cholinergic receptor activity [1]: has muscarinic cholinergic receptor activity
- active at the 5-HT1C receptor (5-HT1C receptor): active
- effect in the treatment or inhibition of cerebral focal stroke (cerebral focal stroke): significant effect
